Read-outs that look alike come from different tables or passages of the source.

For one experiment, the system named is NALM-21. The experiment can be described thus: In vitro cytotoxic activity (CellTiterGlo), NALM-21 (ALL). It counts as cell-based. Conditions: Homo sapiens; 48-hours; read-out: NALM-21 LD50. Here is the method: (§1) Non-metabolized targeted toxicity, or general toxicity, of compounds was assessed by treating a panel of selected cell lines in culture with a dilution series of test compounds and the lethal dose that will kill half of the cells (i.e., the LD50) was determined. Compounds herein were assayed against a panel of cytokine-independent Philadelphia chromosome (BCR-ABL1 translocation) positive (Ph+) leukemia and lymphoma cell lines along with several control cell lines that were ABL1-independent. The panel included murine cell lines BaF3-wildtype (wt), BaF3-mutants (BaF3-wt cells engineered to be reliant on various kinase domain mutations with the BCR-ABL1 fusion protein), and various ALL and CML human cell lines, including SD-1, TOM-1, NALM-21, K562, Jeko-1, BV173, and KCL-22.
(§2) To test the cytotoxic activity of compounds herein, 1.6E4 cells were plated in 96-well plates at a final volume of 135 μL per well. Compounds were then added to the wells. In general, final concentrations of compounds started at a maximum concentration of […] and were diluted by half-log concentrations down to a final concentration of 0.316 nM. However, different cell lines required varying drug concentration ranges for optimal LD50 calculations. To create half-log dilutions, 40 mM DMSO solutions of compounds were diluted in half-log iterations to generate 400× starting concentration of compounds in DMSO. The 400× compound solutions were then diluted by 40-fold by adding 5 μL of 400× DMSO stock to 195 μL cell culture media, generating 10× drug concentrations in cell culture media. Then 15 μL of the 10× drug solutions were added to the 135 μL volume of cell suspension, resulting in 1× final drug concentrations with 0.25% DMSO in all wells. 48-hours after adding compounds, cells were measured for relative viability to generate cytotoxicity curves associated with the varying concentrations of compounds. […] LD50 values were measured by normalizing luminescence intensity to the lowest drug concentration. GraphPad Prism was used to plot and calculate LD50 values from the cytotoxic kill curves. Curves were fit to a non-linear regression model, with compound concentration vs. response and variable slope (four parameters).
(In general: ATP-based viability assays read luminescence as a measure of living cells.)

The target in a further experiment is T1, ABL1 T315I (Homo sapiens, UniProt P00519, T315I).
T1 construct: The ABL1 variant polypeptides utilized contained the same polypeptide as the “isoahABL1(wt)” polypeptide except that each contained one corresponding amino acid substitution
Put plainly: Z′-LYTE assay, ABL1 T315I. In kind it is biochemical. An excerpt: (§3) This Example describes a cell-free assay utilized to identify candidate compounds that bind to and inhibit protein kinase (PK) and PK variants. One assay is referred to as a “Z′-LYTE assay” and is an example of a labeled peptide cleavage assay. The fluorescence-based assay relies on the differential sensitivity of a small, dual-end-labelled peptide to cleavage by a protease, dependent on the phosphorylation state of the peptide (FIG. 1). The peptide substrate is end-labelled with two distinct fluorophores that comprise a Fluorescence Resonance Energy Transfer (FRET) pair.
(§4) In the absence of inhibitor, the kinase transfers the gamma-phosphate from ATP to the single, unique tyrosine, serine or threonine in the synthetic FRET peptide. The reaction conditions are titrated such that 10-40% of the peptide substrate is phosphorylated. In a second reaction, a site-specific protease that only recognizes and cleaves the non-phosphorylated FRET peptide is added. Cleavage interferes with FRET between the donor (i.e., coumarin) and the acceptor (i.e., fluorescein) fluorophores on the FRET-peptide substrate, unlike the phosphorylated, uncleaved peptide.
(§5) The Test Compounds are screened in 1% DMSO (final) in the well.
(§6) All Peptide/Kinase Mixtures are diluted to a 2× working concentration in the appropriate Kinase Buffer. The 2×ABL1 polypeptide/Tyr 02 substrate peptide mixture is prepared in 50 mM HEPES pH 7.5, 0.01% BRIJ-35, 10 mM MgCl2, 1 mM EGTA. The final 10 μL Kinase Reaction contains 0.3-1.2 ng ABL1 (or 1.36-6 ng ABL1(T315I)) and 2 μM Tyr 02 in 50 mM HEPES, pH 7.5, 0.01% BRIJ-35, 10 mM MgCl2, 1 mM EGTA. After the 1-hour Kinase Reaction incubation, 5 μL of a 1:128 dilution of Development Reagent A is added. The ABL1(wt) polypeptide utilized for the assay described in this Example was the “isoahABL1(wt)” polypeptide described herein (SEQ ID NO:4), which is referred to as “ABL1” in Table 1 and “ABL1(wt)” or “WT” in Table 3 of this Example. The ABL1 variant polypeptides utilized contained the same polypeptide as the “isoahABL1(wt)” polypeptide except that each contained one corresponding amino acid substitution chosen from E255K, F317I, F317L, G250E, T315I or Y253F. […]
(§7) All ATP Solutions are diluted to a 4× working concentration in Kinase Buffer (50 mM HEPES, pH 7.5, 0.01% BRIJ-35, 10 mM MgCl2, 1 mM EGTA). The ATP Km apparent (Km app) is previously determined using a Z′-LYTE assay.
(§8) Bar-coded Corning, low volume NBS, black 384-well plate (Corning Cat. #4514) • 1. […] Read on fluorescence plate reader and analyze the data

For another experiment, the target named is ABL1(wt) (Homo sapiens, UniProt P00519). Put plainly: Z′-LYTE assay (labeled peptide cleavage), ABL1(wt). In kind it is biochemical.
Description: as §3, §4, §5, §6, §7, §8
A known inhibitor control standard curve, 10-point titration, is run for each individual kinase on the same plate as the kinase to ensure the kinase is inhibited within an expected IC50 range previously determined. […]

In the next experiment the test system is K562. The experiment can be described thus: In vitro cytotoxic activity (CellTiterGlo), K562 (CML). In kind it is cell-based. Conditions: Homo sapiens, 48-hours, read-out: K562 LD50. The method, then: as §1, §2

`Cc1ccc(Nc2ncc3cccc(-c4ccc(F)cc4OC(C)C)c3n2)cc1NC(=O)c1ccc(C(=O)N(C)C)cc1` [Cmpd11, N1-(5-((8-(4-fluoro-2-isopropoxyphenyl)quinazolin-2-yl)amino)-2-methylphenyl)-N4,N4-dimethylterephthalamide]: the IC50 in the experiment on NALM-21 was 446 nM; at ABL1 T315I (class by IC50 values in Table 5, read-out: inhibitor class of ABL(T315I) according to IC50) it was less than 20 nM; on ABL1 T315I (test compounds, Z′-LYTE, read-out: IC50 values for test compounds, ABL1(T315I)), 1.89 nM; on ABL1(wt) (class by IC50 values in Table 5, read-out: inhibitor class of ABL1(wt) according to IC50), less than 20 nM; at ABL1(wt) (test compounds, Z′-LYTE, read-out: IC50 values for test compounds, ABL1(wt)) it was 2.93 nM; with K562, 403 nM.

For the origin of these results see patent publication US20260297035A1, “PROTEIN KINASE INHIBITORS AND USES THEREOF” (DELiver Therapeutics, Inc., priority 2023, published 2026).
